Measured values from patent publication US7851474B2, “Dipiperazinyl ketones and related analogues” (Neurogen Corporation, priority 2005, dated 2010).
pKi: −log10 of the molar value.

Target: T1, chimeric human H3 receptor (Homo sapiens, UniProt Q9Y5N1, E19D)
T1 construct: made in house; host or cells: Sf9 insect cells (baculovirus infection); P2 membrane preparation
Test: Chimeric human H3 receptor GTP binding assay (agonist-stimulated GTP-gamma35S binding, Example 7)
Assay type: biochemical
Settings: not given
Description: This Example illustrates a representative assay for evaluating agonist-stimulated GTP-gamma^35S binding (“GTP binding”) activity. […] This agonist-stimulated GTP binding activity can also be used to detect partial agonism mediated by antagonist compounds. A compound analyzed in this assay is referred to herein as a “test compound.”
Four independent baculoviral stocks (one directing the expression of the chimeric human H3 receptor and three directing the expression of each of the three subunits of a heterotrimeric G-protein) are used to infect a culture of Sf9 cells as described above. P2 membranes are prepared as described above, and agonist-stimulated GTP binding on the P2 membranes is assessed using histamine (Sigma Chemical Co., St. Louis, Mo.) as agonist in order to ascertain that the receptor/G-protein-alpha-beta-gamma combination(s) yield a functional response as measured by GTP binding. P2 membranes are resuspended by Dounce homogenization (tight pestle) in GTP binding assay buffer (50 mM Tris pH 7.4, 120 mM NaCl, 5 mM MgCl2, 2 mM EGTA, 1 mg/ml BSA, 0.2 mg/ml bacitracin, 0.02 mg/ml aprotinin, 0.01 mg/ml saponin, 10 μM GDP) and added to assay tubes at a concentration of 35 μg protein/reaction tube. […] In competition experiments, non-radiolabeled test compounds are added to separate reactions at concentrations ranging from 10^−10 M to 10^−6 M along with 1 μM histamine to yield a final volume of 0.20 ml.
Neutral antagonists are antagonists that are substantially free of inherent agonist activity, and include those test compounds that reduce the histamine-stimulated GTP binding activity towards, but not below, baseline levels. In contrast, in the absence of added histamine, inverse agonists reduce the GTP binding activity of the receptor-containing membranes below baseline.
After a 60-min incubation at room temperature, reactions are terminated by vacuum filtration over WHATMAN GF/C filters (pre-soaked in wash buffer, 0.1% BSA) followed by washing with ice-cold wash buffer (50 mM Tris pH 7.4, 120 mM NaCl). The amount of receptor-bound (and thereby membrane-bound) GTP-gamma^35S is determined by measuring the filter-bound radioactivity, preferably by liquid scintillation spectrometry of the washed filters. […] Data is expressed as percent above basal (baseline). The results of GTP binding experiments are analyzed using SIGMAPLOT software (SPSS Inc., Chicago, Ill.).
IC50 values are calculated by non-linear regression analysis of dose-response curves using Kaleidograph (Synergy Software, Reading, Pa.).

T1 sequence (Q9Y5N1 with tags, fused parts or gaps E19D): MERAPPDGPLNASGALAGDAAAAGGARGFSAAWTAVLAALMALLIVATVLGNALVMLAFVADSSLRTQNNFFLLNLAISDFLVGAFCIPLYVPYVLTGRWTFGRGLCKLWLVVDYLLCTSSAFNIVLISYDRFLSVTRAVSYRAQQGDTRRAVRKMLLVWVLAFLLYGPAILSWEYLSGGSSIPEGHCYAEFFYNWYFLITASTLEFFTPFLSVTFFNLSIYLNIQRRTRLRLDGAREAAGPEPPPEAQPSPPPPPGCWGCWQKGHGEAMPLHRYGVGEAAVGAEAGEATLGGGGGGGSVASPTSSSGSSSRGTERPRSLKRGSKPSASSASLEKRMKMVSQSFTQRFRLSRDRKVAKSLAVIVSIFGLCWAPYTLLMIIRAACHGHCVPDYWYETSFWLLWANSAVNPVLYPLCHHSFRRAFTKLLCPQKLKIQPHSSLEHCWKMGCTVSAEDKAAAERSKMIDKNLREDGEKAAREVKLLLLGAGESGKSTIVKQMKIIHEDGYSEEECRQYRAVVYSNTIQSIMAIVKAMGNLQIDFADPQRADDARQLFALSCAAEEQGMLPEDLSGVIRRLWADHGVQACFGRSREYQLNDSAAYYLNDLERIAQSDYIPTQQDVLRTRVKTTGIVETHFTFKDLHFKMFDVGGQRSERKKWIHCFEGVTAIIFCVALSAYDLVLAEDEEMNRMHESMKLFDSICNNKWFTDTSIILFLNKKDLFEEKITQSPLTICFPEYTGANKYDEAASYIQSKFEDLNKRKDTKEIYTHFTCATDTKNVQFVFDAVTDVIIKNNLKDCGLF

Row | Structure (SMILES) | pKi
1 | CCN1CCN(C(=O)CN2CCN(c3ccc(Cl)cc3)CC2)CC1 [Compound 359, 1-(4-chlorophenyl)-4-[2-(4-ethylpiperazin-1-yl)-2-oxoethyl]piperazine] | > 6.00

Same assay, conditions: assay of Example 7; symbol * in column headed Ki of Table II; read-out: Ki

Row | pKi | Structure (SMILES)
2 | > 6.00 | CCC(C)N1CCN(C(=O)CN2CCN(c3ccc(Br)c(OC)c3)CC2)CC1 (stereo not shown) [Compound 337, 1-(4-bromo-3-methoxyphenyl)-4-[2-(4-sec-butylpiperazin-1-yl)-2-oxoethyl]piperazine]
3 | > 6.00 | O=C(CN1CCN(c2ccc(Br)cc2)CC1)N1CCN(C2CCCCC2)CC1 [Compound 338, 1-(4-bromophenyl)-4-[2-(4-cyclohexylpiperazin-1-yl)-2-oxoethyl]piperazine]
4 | > 6.00 | CC(C)N1CCN(C(=O)CN2CCN(c3ccc(Br)cc3)CC2)CC1 [Compound 339, 1-(4-bromophenyl)-4-[2-(4-isopropylpiperazin-1-yl)-2-oxoethyl]piperazine]
5 | > 6.00 | O=C(CN1CCN(c2ccc(-c3ccc(Cl)cc3F)cc2)CC1)N1CCN(C2CCC2)CC1 [Compound 341, 1-(4′-chloro-2′-fluorobiphenyl-4-yl)-4-[2-(4-cyclobutylpiperazin-1-yl)-2-oxoethyl]piperazine]
6 | > 6.00 | O=C(CN1CCN(c2ccc(-c3ccc(Cl)c(F)c3)cc2)CC1)N1CCN(C2CCC2)CC1 [Compound 343, 1-(4′-chloro-3′-fluorobiphenyl-4-yl)-4-[2-(4-cyclobutylpiperazin-1-yl)-2-oxoethyl]piperazine]
7 | > 6.00 | COc1cc(N2CCN(CC(=O)N3CCN(C4CCC4)CC3)CC2)ccc1Cl [Compound 344, 1-(4-chloro-3-methoxyphenyl)-4-[2-(4-cyclobutylpiperazin-1-yl)-2-oxoethyl]piperazine]
8 | > 6.00 | COc1cc(N2CCN(CC(=O)N3CCN(C4CCCCC4)CC3)CC2)ccc1Cl [Compound 345, 1-(4-chloro-3-methoxyphenyl)-4-[2-(4-cyclohexylpiperazin-1-yl)-2-oxoethyl]piperazine]
9 | > 6.00 | COc1cc(N2CCN(CC(=O)N3CCN(C4CCCC4)CC3)CC2)ccc1Cl [Compound 346, 1-(4-chloro-3-methoxyphenyl)-4-[2-(4-cyclopentylpiperazin-1-yl)-2-oxoethyl]piperazine]
10 | > 6.00 | COc1cc(N2CCN(CC(=O)N3CCN(C(C)C)CC3)CC2)ccc1Cl [Compound 347, 1-(4-chloro-3-methoxyphenyl)-4-[2-(4-isopropylpiperazin-1-yl)-2-oxoethyl]piperazine]
11 | > 6.00 | Cc1cc(N2CCN(CC(=O)N3CCN(C4CCC4)CC3)CC2)ccc1Cl [Compound 349, 1-(4-chloro-3-methylphenyl)-4-[2-(4-cyclobutylpiperazin-1-yl)-2-oxoethyl]piperazine]
12 | > 6.00 | Cc1cc(N2CCN(CC(=O)N3CCN(C4CCCCC4)CC3)CC2)ccc1Cl [Compound 350, 1-(4-chloro-3-methylphenyl)-4-[2-(4-cyclohexylpiperazin-1-yl)-2-oxoethyl]piperazine]
13 | > 6.00 | Cc1cc(N2CCN(CC(=O)N3CCN(C4CCCC4)CC3)CC2)ccc1Cl [Compound 351, 1-(4-chloro-3-methylphenyl)-4-[2-(4-cyclopentylpiperazin-1-yl)-2-oxoethyl]piperazine]
14 | > 6.00 | CCN1CCN(C(=O)CN2CCN(c3ccc(Cl)c(C)c3)CC2)CC1 [Compound 352, 1-(4-chloro-3-methylphenyl)-4-[2-(4-ethylpiperazin-1-yl)-2-oxoethyl]piperazine]
15 | > 6.00 | Cc1cc(N2CCN(CC(=O)N3CCN(C(C)C)CC3)CC2)ccc1Cl [Compound 353, 1-(4-chloro-3-methylphenyl)-4-[2-(4-isopropylpiperazin-1-yl)-2-oxoethyl]piperazine]
16 | > 6.00 | O=C(CN1CCN(c2ccc(-c3ccc(Cl)cc3)cc2)CC1)N1CCN(C2CCC2)CC1 [Compound 355, 1-(4′-chlorobiphenyl-4-yl)-4-[2-(4-cyclobutylpiperazin-1-yl)-2-oxoethyl]piperazine]
17 | > 6.00 | O=C(CN1CCN(c2ccc(Cl)cc2)CC1)N1CCN(C2CCC2)CC1 [Compound 356]
18 | > 6.00 | O=C(CN1CCN(c2ccc(Cl)cc2)CC1)N1CCN(C2CCCCC2)CC1 [Compound 357, 1-(4-chlorophenyl)-4-[2-(4-cyclohexylpiperazin-1-yl)-2-oxoethyl]piperazine]

Row | pKi | Structure (SMILES)
19 | > 6.00 | O=C(CN1CCN(c2ccc(Cl)cc2)CC1)N1CCN(C2CCCC2)CC1 [Compound 358, 1-(4-chlorophenyl)-4-[2-(4-cyclopentylpiperazin-1-yl)-2-oxoethyl]piperazine]
20 | > 6.00 | CC(C)N1CCN(C(=O)CN2CCN(c3ccc(Cl)cc3)CC2)CC1 [Compound 360, 1-(4-chlorophenyl)-4-[2-(4-isopropylpiperazin-1-yl)-2-oxoethyl]piperazine]
21 | > 6.00 | CC(C)N1CCN(C(=O)CN2CCN(c3ccc(F)cc3)CC2)CC1 [Compound 361, 1-(4-fluorophenyl)-4-[2-(4-isopropylpiperazin-1-yl)-2-oxoethyl]piperazine]
22 | > 6.00 | CC(=O)c1cnc(N2CCN(CC(=O)N3CCN(C4CCC4)CC3)CC2)cn1 [Compound 362, 1-(5-{4-[2-(4-cyclobutylpiperazin-1-yl)-2-oxoethyl]piperazin-1-yl}pyrazin-2-yl)ethanone]
23 | > 6.00 | CC(=O)c1ccc(N2C(=O)C3(CCN(CC(=O)N4CCN(C5CCC5)CC4)CC3)c3ccccc32)nc1 [Compound 363, 1-(5-acetylpyridin-2-yl)-1′-[2-(4-cyclobutylpiperazin-1-yl)-2-oxoethyl]spiro[indole-3,4′-piperidin]-2(1H)-one]
24 | > 6.00 | COc1ccc(Cl)cc1-c1ccc(N2CCN(CC(=O)N3CCN(C4CCC4)CC3)CC2)cc1 [Compound 365, 1-(5′-chloro-2′-methoxybiphenyl-4-yl)-4-[2-(4-cyclobutylpiperazin-1-yl)-2-oxoethyl]piperazine]
25 | > 6.00 | COc1ccc(Cl)cc1N1CCN(CC(=O)N2CCN(C3CCC3)CC2)CC1 [Compound 366, 1-(5-chloro-2-methoxyphenyl)-4-[2-(4-cyclobutylpiperazin-1-yl)-2-oxoethyl]piperazine]
26 | > 6.00 | CC(=O)c1ccc(N2CCN(CC(=O)N3CCN(C4CCC4)CC3)CC2)nc1 [Compound 371, 1-(6-{4-[2-(4-cyclobutylpiperazin-1-yl)-2-oxoethyl]piperazin-1-yl}pyridin-3-yl)ethanone]
27 | > 6.00 | CC(=O)c1ccc(N2CCN(CC(=O)N3CCN(C4CCC4)CC3)CC2)nn1 [Compound 372, 1-(6-{4-[2-(4-cyclobutylpiperazin-1-yl)-2-oxoethyl]piperazin-1-yl}pyridazin-3-yl)ethanone]
28 | > 6.00 | CC(=O)c1ccc(N2CCN(CC(=O)N3CCN(C4CCCC4)CC3)CC2)nc1 [Compound 373, 1-(6-{4-[2-(4-cyclopentylpiperazin-1-yl)-2-oxoethyl]piperazin-1-yl}pyridin-3-yl)ethanone]
29 | > 6.00 | COc1cc(Br)c(CC(=O)N2CCN(CC(=O)N3CCN(C4CCC4)CC3)CC2)cc1OC [Compound 378, 1-[(2-bromo-4,5-dimethoxyphenyl)acetyl]-4-[2-(4-cyclobutylpiperazin-1-yl)-2-oxoethyl]piperazine]
30 | > 6.00 | O=C(Cc1cc(Cl)ccc1Br)N1CCN(CC(=O)N2CCN(C3CCC3)CC2)CC1 [Compound 379, 1-[(2-bromo-5-chlorophenyl)acetyl]-4-[2-(4-cyclobutylpiperazin-1-yl)-2-oxoethyl]piperazine]
31 | > 6.00 | O=C(Cc1ccccc1Br)N1CCN(CC(=O)N2CCN(C3CCC3)CC2)CC1 [Compound 380, 1-[(2-bromophenyl)acetyl]-4-[2-(4-cyclobutylpiperazin-1-yl)-2-oxoethyl]piperazine]
32 | > 6.00 | O=C(Cc1c(F)cccc1Cl)N1CCN(CC(=O)N2CCN(C3CCC3)CC2)CC1 [Compound 382, 1-[(2-chloro-6-fluorophenyl)acetyl]-4-[2-(4-cyclobutylpiperazin-1-yl)-2-oxoethyl]piperazine]
33 | > 6.00 | COc1ccc(Br)cc1CC(=O)N1CCN(CC(=O)N2CCN(C3CCC3)CC2)CC1 [Compound 409, 1-[(5-bromo-2-methoxyphenyl)acetyl]-4-[2-(4-cyclobutylpiperazin-1-yl)-2-oxoethyl]piperazine]
34 | > 6.00 | O=C(CN1CCN(c2ccc(C(=O)N3CCCCCC3)cn2)CC1)N1CCN(C2CCC2)CC1 [Compound 415, 1-[(6-{4-[2-(4-cyclobutylpiperazin-1-yl)-2-oxoethyl]piperazin-1-yl}pyridin-3-yl)carbonyl]azepane]
